Results published in PubChem BioAssay AID330 (DTP/NCI, 2004).
Values joined by “and” are separate entries in the source; they are usually repeats but may differ in a detail not shown here. Identical values can stand only once. Inconclusive results and toxic doses are left out. How the source made its calls: active means survival T/C of 150% or more; inactive means T/C below 125% in these data.

System: P388 leukemia ip, CD2F1 mice, survival T/C
Assay: NCI In Vivo Anticancer Drug Screen. Data for tumor model P388 Leukemia (intraperitoneal) in CD2F1 (CDF1) mice
Conditions: endpoint: median survival time, higher = longer survival
Summary of the method: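 Mice carrying the transplanted tumor received test compound or vehicle. Survival was recorded in each group, and the value is the treated-group measurement divided by that of the vehicle-treated control group.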

[1] = dose: 50.0 mg/kg/injection, schedule: Q01DX005 (ip), vehicle: Klucel (hydroxypropylcellulose) (HPC)
[2] = dose: 100.0 mg/kg/injection, schedule: Q01DX005 (ip), vehicle: Klucel (hydroxypropylcellulose) (HPC)
[3] = dose: 100.0 mg/kg/injection, schedule: Q04DX003 (ip), vehicle: saline with Tween-80
[4] = dose: 200.0 mg/kg/injection, schedule: Q04DX003 (ip), vehicle: saline with Tween-80
[5] = dose: 400.0 mg/kg/injection, schedule: Q04DX003 (ip), vehicle: saline with Tween-80
[6] = dose: 200.0 mg/kg/injection, schedule: Q01DX005 (ip), vehicle: Klucel (hydroxypropylcellulose) (HPC)
[7] = dose: 6.25 mg/kg/injection, schedule: Q01DX009 (ip), vehicle: saline with Tween-80
[8] = dose: 12.5 mg/kg/injection, schedule: Q01DX009 (ip), vehicle: saline with Tween-80
[9] = dose: 50.0 mg/kg/injection, schedule: Q01DX005 (ip), vehicle: saline with Tween-80
[10] = dose: 100.0 mg/kg/injection, schedule: Q01DX005 (ip), vehicle: saline with Tween-80
[11] = dose: 200.0 mg/kg/injection, schedule: Q01DX005 (ip), vehicle: saline with Tween-80
[12] = dose: 60.0 mg/kg/injection, schedule: Q01DX005 (ip), vehicle: saline with Tween-80
[13] = dose: 120.0 mg/kg/injection, schedule: Q01DX005 (ip), vehicle: saline with Tween-80
[14] = dose: 240.0 mg/kg/injection, schedule: Q01DX005 (ip), vehicle: saline with Tween-80
[15] = dose: 3.13 mg/kg/injection, schedule: Q01DX009 (ip), vehicle: saline with Tween-80
[16] = dose: 50.0 mg/kg/injection, schedule: Q01DX009 (ip), vehicle: saline

Measured: T/C

O=NN(C(=O)NCc1cccnc1)C1CCCCC1
inactive: dose: 25.0 mg/kg/injection, schedule: Q01DX001 (ip), vehicle: distilled water + Tween-80 115 % of control | dose: 50.0 mg/kg/injection, schedule: Q01DX001 (ip), vehicle: distilled water + Tween-80 110 % of control | dose: 100.0 mg/kg/injection, schedule: Q01DX001 (ip), vehicle: distilled water + Tween-80 106 % of control | dose: 200.0 mg/kg/injection, schedule: Q01DX001 (ip), vehicle: distilled water + Tween-80 102 % of control | dose: 400.0 mg/kg/injection, schedule: Q01DX001 (ip), vehicle: distilled water + Tween-80 102 % of control

CC(=O)NN=Nc1ccc(C)cc1
inactive: [1] 105 % of control | [2] 102 % of control

CO/N=C/c1ccc([N+](=O)[O-])s1
inactive: dose: 12.0 mg/kg/injection, schedule: Q01DX001 (ip), vehicle: other 90 % of control | dose: 25.0 mg/kg/injection, schedule: Q01DX001 (ip), vehicle: other 104 % of control | dose: 50.0 mg/kg/injection, schedule: Q01DX001 (ip), vehicle: other 100 % of control

C[C@H]1[C@H](O)[C@H]2[C@@H](CCC3=CC(=O)CC[C@@]32C)[C@@H]2CC[C@H](O)[C@@]12C
inactive: [3] 104 % of control | [4] 100 % of control | [5] 100 % of control

O=C1NCC(Br)C(=O)N1 (stereo unspecified)
inactive: dose: 25.0 mg/kg/injection, schedule: Q01DX009 (ip), vehicle: other 113 % of control | dose: 25.0 mg/kg/injection, schedule: Q01DX009 (ip), vehicle: saline + Tween-80 + alcohol 112 % of control | dose: 50.0 mg/kg/injection, schedule: Q01DX009 (ip), vehicle: saline + Tween-80 + alcohol 121 % of control | dose: 100.0 mg/kg/injection, schedule: Q01DX009 (ip), vehicle: saline + Tween-80 + alcohol 122 % of control

CC1CN2CC(C)O[Si](CC[Si]34OC(C)CN(CC(C)O3)CC(C)O4)(O1)OC(C)C2 (stereo unspecified)
inactive: [1] 108 % of control | [2] 106 % of control | [6] 105 % of control

[O-]c1ccccc1C=NCCN1CC1.[O-]c1ccccc1C=NCCN1CC1.[Zn+2]
inactive: [7] 91 % of control | [8] 97 % of control | dose: 25.0 mg/kg/injection, schedule: Q01DX009 (ip), vehicle: saline with Tween-80 100 % of control

O=Cc1nnc(-c2ccccc2)o1
inactive: dose: 12.5 mg/kg/injection, schedule: Q01DX009 (ip), vehicle: DMSO 90 % of control | dose: 25.0 mg/kg/injection, schedule: Q01DX009 (ip), vehicle: DMSO 98 % of control | dose: 50.0 mg/kg/injection, schedule: Q01DX009 (ip), vehicle: DMSO 93 % of control

O=C(OCCN(CCOC(=O)c1ccc([N+](=O)[O-])cc1)c1c[nH]c(=O)[nH]c1=O)c1ccc([N+](=O)[O-])cc1
inactive: [9] 96 % of control | [10] 104 % of control | [11] 96 % of control

Cc1cc(/C=C2\SC(=S)NC2=O)cc(C)c1O
inactive: [9] 110 % of control | [10] 94 % of control | [11] 90 % of control

Cn1c(=S)[nH]c2sc3c(c2c1=O)CCC3
inactive: [12] 96 % of control | [13] 93 % of control | [14] 89 % of control

CCN(CC)c1ccc2cc3ccc(=[N+](CC)CC)cc-3oc2c1
inactive: dose: 1.0 mg/kg/injection, schedule: Q01DX009 (ip), vehicle: saline 109 % of control

N#CSCc1ccc(CSC#N)c(Cl)c1
inactive: dose: 1.56 mg/kg/injection, schedule: Q04DX003 (ip), vehicle: saline sonified 100 % of control | dose: 2.08 mg/kg/injection, schedule: Q01DX009 (ip), vehicle: saline with Tween-80 109 % of control | [15] 100 % of control | dose: 3.13 mg/kg/injection, schedule: Q04DX003 (ip), vehicle: saline sonified 104 % of control | dose: 4.69 mg/kg/injection, schedule: Q01DX009 (ip), vehicle: saline with Tween-80 118 % of control | dose: 6.25 mg/kg/injection, schedule: Q04DX003 (ip), vehicle: saline sonified 109 % of control

Cc1nc2c(nc1C)C(=O)c1cc(O)ccc1C2=O
inactive: [1] 101 % of control | [2] 104 % of control | [6] 100 % of control

CN=C(C)c1ccc(N(C)C)cc1
inactive: dose: 12.5 mg/kg/injection, schedule: Q04DX003 (ip), vehicle: saline with Tween-80 100 % of control | dose: 25.0 mg/kg/injection, schedule: Q04DX003 (ip), vehicle: saline with Tween-80 100 % of control and 105 % of control | dose: 50.0 mg/kg/injection, schedule: Q04DX003 (ip), vehicle: saline with Tween-80 110 % of control and 97 % of control | [3] 105 % of control and 115 % of control | [4] 100 % of control and 120 % of control

CCC1(C)CCC(C)(CC)c2c(C)cc(C(C)=O)cc21 (stereo unspecified)
inactive: [3] 114 % of control | [4] 97 % of control | [5] 92 % of control

C[N+]1=P(C)(C)N=P(C)(C)[N+](C)=P(C)(C)N=P1(C)C
inactive: dose: 12.5 mg/kg/injection, schedule: Q01DX009 (ip), vehicle: saline 95 % of control | dose: 25.0 mg/kg/injection, schedule: Q01DX009 (ip), vehicle: saline 95 % of control | [16] 116 % of control and 95 % of control

O=C1C2CSCN2C(=O)C2CSCN12 (stereo unspecified)
inactive: dose: 100.0 mg/kg/injection, schedule: Q01DX001 (ip), vehicle: Klucel (hydroxypropylcellulose) (HPC) 102 % of control | dose: 200.0 mg/kg/injection, schedule: Q01DX001 (ip), vehicle: Klucel (hydroxypropylcellulose) (HPC) 99 % of control | dose: 400.0 mg/kg/injection, schedule: Q01DX001 (ip), vehicle: Klucel (hydroxypropylcellulose) (HPC) 105 % of control

CC(C)COCSCC(NC(=O)CNC(=O)C(Cc1ccccc1)NC(=O)CNC(=O)C(CSC(c1ccccc1)(c1ccccc1)c1ccccc1)NC(c1ccccc1)(c1ccccc1)c1ccccc1)C(=O)O (stereo unspecified)
inactive: dose: 15.0 mg/kg/injection, schedule: Q01DX005 (ip), vehicle: Klucel (hydroxypropylcellulose) (HPC) 97 % of control | dose: 30.0 mg/kg/injection, schedule: Q01DX005 (ip), vehicle: Klucel (hydroxypropylcellulose) (HPC) 96 % of control | dose: 60.0 mg/kg/injection, schedule: Q01DX005 (ip), vehicle: Klucel (hydroxypropylcellulose) (HPC) 88 % of control and 94 % of control

C1=CCN(c2nc(N3CCOCC3)nc(N3CCCc4ccccc43)n2)CC1
inactive: [16] 99 % of control | dose: 100.0 mg/kg/injection, schedule: Q01DX009 (ip), vehicle: saline 97 % of control | dose: 200.0 mg/kg/injection, schedule: Q01DX009 (ip), vehicle: saline 99 % of control

COc1ccc(Cl)cc1NC(=O)c1ccco1
inactive: [12] 96 % of control | [13] 99 % of control | [14] 98 % of control

O=S(=O)(O)CNc1cccc(Cl)c1
inactive: dose: 50.0 mg/kg/injection, schedule: Q01DX009 (ip), vehicle: saline with Tween-80 106 % of control | dose: 100.0 mg/kg/injection, schedule: Q01DX009 (ip), vehicle: saline with Tween-80 95 % of control | dose: 200.0 mg/kg/injection, schedule: Q01DX009 (ip), vehicle: saline with Tween-80 98 % of control

[CH3][Ga][CH3].[CH3][Ga][CH3].[CH3][Ga][CH3].[CH3][Ga][CH3].[OH3+].[OH3+].[OH3+].[OH3+]
inactive: dose: 5.0 mg/kg/injection, schedule: Q04DX003 (ip), vehicle: saline with Tween-80 90 % of control | dose: 10.0 mg/kg/injection, schedule: Q04DX003 (ip), vehicle: saline with Tween-80 90 % of control

ClCCN(Cc1ccccc1)Cc1ccccc1
inactive: [15] 104 % of control | [7] 119 % of control | [8] 123 % of control
